We go through 13 compounds from paper PMC11727410, “Identification of Chemical Constituents from Leaves and Stems of Alpinia oxyphylla: Potential Antioxidant and Tyrosinase Inhibitory Properties” (Antioxidants, 2024).

Bounds are passed on as bounds.

In general, IC50 refers to the concentration needed to halve the response being measured. Read a low IC50 as greater potency in that assay.

Assay [1] is described as follows: ABTS radical scavenging activity assay. Conditions: for Inhibitory rate (%), ABTS (Table S4): Table S4, concentration not given; for ABTS Inhibitory Rate (%): concentration 200 μM, "-" not active; for IC50: converted from μg/mL. Here is the method:
The ABTS radical scavenging activity was examined as previously reported at room temperature (25 °C). Briefly, 160 μL sample in DMSO with different concentrations (800, 400, 200, 100, 50, 25 μM) was reacted with 480 μL ABTS reagent in a 1.5 mL centrifuge tube away from light for 6 min. Next, 200 μL of the mixture was taken out and transferred into a 96-well plate, which was used for measuring the absorbance by a microplate reader at 734 nm (ODsample). The control (ODcontrol) and blank (ODblank) were, respectively, established from the mixture solutions of the sample in DMSO and water and the mixture solution of DMSO and ABTS reagent. Trolox was the positive control, with the same concentration with compounds. The ABTS radical scavenging capacity was calculated as following:ABTS radical scavenging capacity (%) = [1 − (ODsample − ODcontrol)/ODblank] × 100%

Assay [2] can be described thus: DPPH radical scavenging activity assay. Conditions: for Inhibitory rate (%), DPPH (Table S4): Table S4, concentration not given; for DPPH Inhibitory Rate (%): concentration 200 μM; for IC50: converted from μg/mL. As to the method: The DPPH radical scavenging capacity was measured according to the following reference at room temperature (25 °C). Briefly, 320 μL sample in DMSO with different concentrations (400, 200, 100, 50, 25, 12.5 μM) was reacted with 320 μL DPPH reagent (0.1 mM) in 1.5 mL centrifuge tube away from light for 30 min. Next, 200 μL of the mixture was transferred into a 96-well plate, which was used for measuring the absorbance at 517 nm (ODsample). A control (ODcontrol) and blank (ODblank) were, respectively, established from the mixture solutions of the sample in DMSO and ethanol and the mixture solution of DMSO and DPPH reagent. Vitamin C was the positive control, with the same concentration as the compounds. The DPPH radical scavenging capacity was calculated according to the following:DPPH radical scavenging capacity (%) = [1 − (ODsample − ODcontrol)/ODblank] × 100%

Take `COc1cc(CCC(=O)CCCCc2ccccc2)ccc1O` [Compound 6, yakuchinone A]: in assay [1], the “Inhibitory rate (%), ABTS (Table S4)” value is reported as 4.42 ± 0.12% and the “ABTS Inhibitory Rate (%)” value was determined as 4.42 ± 0.12 %. Besides, in assay [2], the “Inhibitory rate (%), DPPH (Table S4)” value came to 18.77 ± 1.28% and the “DPPH Inhibitory Rate (%)” value stood at 18.77 ± 1.28 %.

Regarding `COc1cc(CC/C=C/C(=O)CCc2ccc(O)c(OC)c2)ccc1O` [Compound 8, gingerenone A], in assay [1], the “ABTS IC50 ± SD” value came out at 36.06 ± 1.07 µg/mL; the “Inhibitory rate (%), ABTS (Table S4)” value amounted to 90.81 ± 0.24%; the “ABTS Inhibitory Rate (%)” value amounted to 90.81 ± 0.24 %. In assay [2], the “Inhibitory rate (%), DPPH (Table S4)” value stood at 52.84 ± 2.47% and the “DPPH Inhibitory Rate (%)” value is reported as 52.84 ± 2.47 %.

On to `COC(=O)[C@H]1O[C@@H](Oc2c(-c3ccc(O)cc3)oc3cc(O)cc(O)c3c2=O)[C@H](O[C@@H]2O[C@@H](C)[C@H](O)[C@@H](O)[C@H]2O)[C@@H](O)[C@@H]1O` [Compound 9, kaempferol 3-O-α-L-rhamnosyl-(1 → 2)-(β-D-glucuronatemethyl ester)], for which, in assay [1], the “ABTS IC50 ± SD” value was determined as 6.20 ± 0.05 µg/mL; the “Inhibitory rate (%), ABTS (Table S4)” value was 92.39 ± 0.27%; the “ABTS Inhibitory Rate (%)” value is 92.39 ± 0.27%. Besides, in assay [2], the “Inhibitory rate (%), DPPH (Table S4)” value is listed as 43.07 ± 3.99% and the “DPPH Inhibitory Rate (%)” value is recorded as 43.07 ± 3.99 %.

For the compound `COc1ccc(-c2oc3cc(OC)cc(O)c3c(=O)c2O)cc1` [Compound 12, 3,5-dihydroxy-4′,7-dimethoxyflavone], in assay [1], the “ABTS IC50 ± SD” value came out at 8.55 ± 0.08 µg/mL; the “Inhibitory rate (%), ABTS (Table S4)” value was 75.07 ± 0.46%; the “ABTS Inhibitory Rate (%)” value is given as 75.07 ± 0.46 %. Besides, in assay [2], the “DPPH IC50 ± SD” value is 23.15 ± 3.24 µg/mL; the “Inhibitory rate (%), DPPH (Table S4)” value was found to be 79.80 ± 2.02%; the “DPPH Inhibitory Rate (%)” value came out at 79.80 ± 2.02 %.

On to `COc1cc(O)c2c(=O)cc(-c3ccccc3)oc2c1` [Compound 13, tectochrysin], for which, in assay [1], the “ABTS IC50 ± SD” value is 20.81 ± 0.29 µg/mL; the “Inhibitory rate (%), ABTS (Table S4)” value stood at 91.93 ± 1.68%; the “ABTS Inhibitory Rate (%)” value amounted to 91.93 ± 1.68 %. Besides, in assay [2], the “Inhibitory rate (%), DPPH (Table S4)” value was 18.61 ± 0.62% and the “DPPH Inhibitory Rate (%)” value is given as 18.61 ± 0.62 %.

As to `O=C1C[C@@H](c2ccccc2)Oc2cc(O)cc(O)c21` [Compound 14, pinocembrin], in assay [1], the “ABTS IC50 ± SD” value was determined as 27.73 ± 0.69 µg/mL; the “Inhibitory rate (%), ABTS (Table S4)” value stood at 78.11 ± 0.32%; the “ABTS Inhibitory Rate (%)” value was 78.11 ± 0.32 %. Further, in assay [2], the “Inhibitory rate (%), DPPH (Table S4)” value amounted to 27.53 ± 1.96% and the “DPPH Inhibitory Rate (%)” value was 27.53 ± 1.96 %.

For `O=c1ccc2c(O)cc3c(c2o1)C[C@@H](O)[C@@H](c1ccc(O)c(O)c1)O3` [Compound 15, isoepiphyllocoumarin], in assay [1], the “ABTS IC50 ± SD” value is 30.57 ± 0.93 µg/mL; the “Inhibitory rate (%), ABTS (Table S4)” value is listed as 71.48 ± 0.32%; the “ABTS Inhibitory Rate (%)” value is listed as 71.48 ± 0.32 %. In addition, in assay [2], the “Inhibitory rate (%), DPPH (Table S4)” value is on record as 36.54 ± 3.60% and the “DPPH Inhibitory Rate (%)” value amounted to 36.54 ± 3.60 %.

For `O=c1ccc2c3c(c(O)cc2o1)C[C@@H](O)[C@@H](c1ccc(O)c(O)c1)O3` [Compound 16, epiphyllocoumarin], in assay [1], the “ABTS IC50 ± SD” value worked out at 8.49 ± 0.06 µg/mL; the “Inhibitory rate (%), ABTS (Table S4)” value is 92.51 ± 0.27%; the “ABTS Inhibitory Rate (%)” value is reported as 92.51 ± 0.27%. For the same compound, in assay [2], the “DPPH IC50 ± SD” value is 7.29 ± 0.60 µg/mL; the “Inhibitory rate (%), DPPH (Table S4)” value is listed as 76.93 ± 1.34%; the “DPPH Inhibitory Rate (%)” value amounted to 76.93 ± 1.34 %.

Take `OC[C@H]1O[C@@H](OCc2ccccc2)[C@H](O)[C@@H](O)[C@@H]1O` [Compound 17, benzyl O-β-D-glucopyranoside]: in assay [2], the “Inhibitory rate (%), DPPH (Table S4)” value came out at 25.74 ± 1.49% and the “DPPH Inhibitory Rate (%)” value is reported as 25.74 ± 1.49 %.

As for `COc1cc(O)cc(OC)c1O[C@@H]1O[C@H](CO)[C@@H](O)[C@H](O)[C@H]1O` [Compound 19, 4-hydroxy-2,6-dimethoxyphenyl-β-D-glucoside], in assay [1], the “ABTS IC50 ± SD” value was determined as 17.50 ± 0.23 µg/mL; the “Inhibitory rate (%), ABTS (Table S4)” value was 92.57 ± 0.10%; the “ABTS Inhibitory Rate (%)” value came out at 92.57 ± 0.10%; 52.9 µM corresponded to half-maximal inhibition (IC50). In addition, in assay [2], the “DPPH IC50 ± SD” value was determined as 114.44 ± 0.14 µg/mL; the “Inhibitory rate (%), DPPH (Table S4)” value amounted to 60.59 ± 0.17%; the “DPPH Inhibitory Rate (%)” value is 60.59 ± 0.17 %; the IC50 is 345 µM.

On to `COc1cc(O)ccc1O[C@@H]1O[C@H](CO)[C@@H](O)[C@H](O)[C@H]1O` [Compound 20, 1,4-dihydroxyl-3-methoxyphenyl-4-O-β-D-glucopyranoside], for which, in assay [1], the “ABTS IC50 ± SD” value is 8.20 ± 0.14 µg/mL; the “Inhibitory rate (%), ABTS (Table S4)” value is listed as 92.80 ± 0.31%; the “ABTS Inhibitory Rate (%)” value worked out at 92.80 ± 0.31%; the IC50 is 27.2 µM. For the same compound, in assay [2], the “DPPH IC50 ± SD” value worked out at 23.21 ± 2.88 µg/mL; the “Inhibitory rate (%), DPPH (Table S4)” value came to 84.06 ± 1.79%; the “DPPH Inhibitory Rate (%)” value was 84.06 ± 1.79%; the IC50 amounted to 77 µM.

As to `OC[C@H]1O[C@@H](Oc2ccccc2O)[C@H](O)[C@@H](O)[C@@H]1O` [Compound 21, pyrocatechol 1-O-β-D-glucopyranoside], in assay [1], the “ABTS IC50 ± SD” value was determined as 46.03 ± 0.27 µg/mL; the “Inhibitory rate (%), ABTS (Table S4)” value is 92.57 ± 0.27%; the “ABTS Inhibitory Rate (%)” value came out at 92.57 ± 0.27%; half-maximal inhibition (IC50) was put at 169 µM. For the same compound, in assay [2], the “DPPH IC50 ± SD” value is no less than 200 µg/mL; the “Inhibitory rate (%), DPPH (Table S4)” value was found to be 31.39 ± 3.99%; the “DPPH Inhibitory Rate (%)” value is recorded as 31.39 ± 3.99 %.

Regarding `COc1ccc([C@H]2OC[C@H]3[C@@H]2CO[C@@H]3c2ccc(OC)c(O[C@@H]3O[C@H](CO)[C@@H](O)[C@H](O)[C@H]3O)c2)cc1O` [Compound 22, 4,4′-dimethoxy-3′-hydroxy-7,9′:7′,9-diepoxylignan-3-O-β-D-glucopyranoside], in assay [1], the “ABTS IC50 ± SD” value stood at 33.32 ± 0.29 µg/mL; the “Inhibitory rate (%), ABTS (Table S4)” value was found to be 91.51 ± 0.21%; the “ABTS Inhibitory Rate (%)” value turned out to be 91.51 ± 0.21 %. For the same compound, in assay [2], the “Inhibitory rate (%), DPPH (Table S4)” value turned out to be 36.91 ± 2.04% and the “DPPH Inhibitory Rate (%)” value is on record as 36.91 ± 2.04 %.
